Measurements taken from patent US20230257396A1, “MACROCYCLES AND THEIR USE” (BLOSSOMHILL THERAPEUTICS, INC., priority 2020, published 2023).

Experiments:
Assay in all cases: KINOMEscan kinase binding assay (Eurofins/DiscoveRx), % Ctrl
kinases [1] = biological target: T1, kinases (Homo sapiens, UniProt P00519, M351T); details: 1 μM; ABL1(M351T)-phosphorylated
T1 construct: purchased Eurofins/DiscoveRx; host or cells: E. coli BL21-derived host (T7 phage display) for most kinases; HEK-293 for the rest
Description: (§1) Kinase binding assays were performed at Eurofins/DiscoveRx using the general KINOMEscan Protocol (Fabian, M. A. et al., “A small molecule-kinase interaction map for clinical kinase inhibitors,” Nat. Biotechnol. 2005, 23(3):329-36). For most assays, kinase-tagged T7 phage strains were prepared in an E. coli host derived from the BL21 strain. E. coli were grown to log-phase and infected with T7 phage and incubated with shaking at 32° C. until lysis. The lysates were centrifuged and filtered to remove cell debris. The remaining kinases were produced in HEK-293 cells and subsequently tagged with DNA for qPCR detection. Streptavidin-coated magnetic beads were treated with biotinylated small molecule ligands for 30 minutes at room temperature to generate affinity resins for kinase assays. The liganded beads were blocked with excess biotin and washed with blocking buffer (SeaBlock (Pierce), 1% BSA, 0.05% Tween 20, 1 mM DTT) to remove unbound ligand and to reduce nonspecific binding. Binding reactions were assembled by combining kinases, liganded affinity beads, and test compounds in 1×binding buffer (20% SeaBlock, 0.17×PBS, 0.05% Tween 20, 6 mM DTT). All reactions were performed in polystyrene 96-well plates in a final volume of 0.135 mL. The assay plates were incubated at room temperature with shaking for 1 hour and the affinity beads were washed with washbuffer (1×PBS, 0.05% Tween 20). The beads were then re-suspended in elution buffer (1× PBS, 0.05% Tween 20, 0.5 μM non-biotinylated affinity ligand) and incubated at room temperature with shaking for 30 minutes. The kinase concentration in the eluates was measured by qPCR. Results for compounds tested in this assay at a given concentration are reported as “% Ctrl”, where lower numbers indicate stronger binding in the matrix.
(§2) (test compound signal-positive control signal)/(negative control signal-positive control signal) X100

kinases [2] = biological target: T2, kinases (Homo sapiens, UniProt P00533); details: 1 μM; EGFR
T2 construct: purchased Eurofins/DiscoveRx; host or cells: E. coli BL21-derived host (T7 phage display) for most kinases; HEK-293 for the rest
Description: as §1, §2

kinases [3] = biological target: T3, kinases (Homo sapiens, UniProt P00533, DEL746-750); details: 1 μM; EGFR(E746-A750del)
T3 construct: purchased Eurofins/DiscoveRx; host or cells: E. coli BL21-derived host (T7 phage display) for most kinases; HEK-293 for the rest
Description: as §1, §2

kinases [4] = biological target: T4, kinases (Homo sapiens, UniProt P00533, L861Q); details: 1 μM; EGFR(L861Q)
T4 construct: purchased Eurofins/DiscoveRx; host or cells: E. coli BL21-derived host (T7 phage display) for most kinases; HEK-293 for the rest
Description: as §1, §2

kinases [5] = biological target: T5, kinases (Homo sapiens, UniProt P00533, T790M); details: 1 μM; EGFR(T790M)
T5 construct: purchased Eurofins/DiscoveRx; host or cells: E. coli BL21-derived host (T7 phage display) for most kinases; HEK-293 for the rest
Description: as §1, §2

kinases [6] = biological target: T6, kinases (Homo sapiens, UniProt P07949); details: 1 μM; RET
T6 construct: purchased Eurofins/DiscoveRx; host or cells: E. coli BL21-derived host (T7 phage display) for most kinases; HEK-293 for the rest
Description: as §1, §2

kinases [7] = biological target: T7, kinases (Homo sapiens, UniProt P07949, V804L); details: 1 μM; RET(V804L)
T7 construct: purchased Eurofins/DiscoveRx; host or cells: E. coli BL21-derived host (T7 phage display) for most kinases; HEK-293 for the rest
Description: as §1, §2

kinases [8] = biological target: T8, kinases (Homo sapiens, UniProt P10721, A829P); details: 1 μM; KIT(A829P)
T8 construct: purchased Eurofins/DiscoveRx; host or cells: E. coli BL21-derived host (T7 phage display) for most kinases; HEK-293 for the rest
Description: as §1, §2

kinases [9] = biological target: T9, kinases (Homo sapiens, UniProt P10721, D816H); details: 1 μM; KIT(D816H)
T9 construct: purchased Eurofins/DiscoveRx; host or cells: E. coli BL21-derived host (T7 phage display) for most kinases; HEK-293 for the rest
Description: as §1, §2

kinases [10] = biological target: T10, kinases (Homo sapiens, UniProt P36888, K663Q); details: 1 μM; FLT3(K663Q)
T10 construct: purchased Eurofins/DiscoveRx; host or cells: E. coli BL21-derived host (T7 phage display) for most kinases; HEK-293 for the rest
T10 sequence (P36888 27-993 K663Q): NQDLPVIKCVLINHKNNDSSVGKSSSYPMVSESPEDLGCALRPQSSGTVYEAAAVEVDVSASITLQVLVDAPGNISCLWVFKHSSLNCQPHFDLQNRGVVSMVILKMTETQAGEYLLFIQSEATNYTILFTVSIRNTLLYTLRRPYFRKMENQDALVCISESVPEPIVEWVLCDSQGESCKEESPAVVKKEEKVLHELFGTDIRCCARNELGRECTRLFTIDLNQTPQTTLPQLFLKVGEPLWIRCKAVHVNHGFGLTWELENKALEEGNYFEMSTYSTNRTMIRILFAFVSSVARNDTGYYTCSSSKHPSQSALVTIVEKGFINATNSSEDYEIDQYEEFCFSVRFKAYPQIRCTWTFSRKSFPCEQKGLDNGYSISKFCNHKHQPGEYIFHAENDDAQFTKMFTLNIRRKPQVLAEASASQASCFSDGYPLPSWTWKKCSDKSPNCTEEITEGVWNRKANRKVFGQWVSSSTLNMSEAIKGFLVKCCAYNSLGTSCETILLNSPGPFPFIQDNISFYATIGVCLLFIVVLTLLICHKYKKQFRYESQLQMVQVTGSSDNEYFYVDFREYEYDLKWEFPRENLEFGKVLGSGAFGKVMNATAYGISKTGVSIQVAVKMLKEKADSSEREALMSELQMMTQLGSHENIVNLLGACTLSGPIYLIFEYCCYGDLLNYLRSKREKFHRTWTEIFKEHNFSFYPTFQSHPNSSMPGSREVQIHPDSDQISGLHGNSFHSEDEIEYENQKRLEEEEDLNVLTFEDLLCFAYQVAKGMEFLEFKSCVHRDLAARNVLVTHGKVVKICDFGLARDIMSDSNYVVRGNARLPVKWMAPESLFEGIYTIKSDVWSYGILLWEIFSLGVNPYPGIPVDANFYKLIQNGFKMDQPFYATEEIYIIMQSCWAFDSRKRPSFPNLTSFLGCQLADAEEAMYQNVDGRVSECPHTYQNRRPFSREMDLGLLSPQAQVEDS
Description: as §1, §2

kinases [11] = details: 1 μM
Description: as §1, §2

T8 sequence (P10721 26-976 A829P): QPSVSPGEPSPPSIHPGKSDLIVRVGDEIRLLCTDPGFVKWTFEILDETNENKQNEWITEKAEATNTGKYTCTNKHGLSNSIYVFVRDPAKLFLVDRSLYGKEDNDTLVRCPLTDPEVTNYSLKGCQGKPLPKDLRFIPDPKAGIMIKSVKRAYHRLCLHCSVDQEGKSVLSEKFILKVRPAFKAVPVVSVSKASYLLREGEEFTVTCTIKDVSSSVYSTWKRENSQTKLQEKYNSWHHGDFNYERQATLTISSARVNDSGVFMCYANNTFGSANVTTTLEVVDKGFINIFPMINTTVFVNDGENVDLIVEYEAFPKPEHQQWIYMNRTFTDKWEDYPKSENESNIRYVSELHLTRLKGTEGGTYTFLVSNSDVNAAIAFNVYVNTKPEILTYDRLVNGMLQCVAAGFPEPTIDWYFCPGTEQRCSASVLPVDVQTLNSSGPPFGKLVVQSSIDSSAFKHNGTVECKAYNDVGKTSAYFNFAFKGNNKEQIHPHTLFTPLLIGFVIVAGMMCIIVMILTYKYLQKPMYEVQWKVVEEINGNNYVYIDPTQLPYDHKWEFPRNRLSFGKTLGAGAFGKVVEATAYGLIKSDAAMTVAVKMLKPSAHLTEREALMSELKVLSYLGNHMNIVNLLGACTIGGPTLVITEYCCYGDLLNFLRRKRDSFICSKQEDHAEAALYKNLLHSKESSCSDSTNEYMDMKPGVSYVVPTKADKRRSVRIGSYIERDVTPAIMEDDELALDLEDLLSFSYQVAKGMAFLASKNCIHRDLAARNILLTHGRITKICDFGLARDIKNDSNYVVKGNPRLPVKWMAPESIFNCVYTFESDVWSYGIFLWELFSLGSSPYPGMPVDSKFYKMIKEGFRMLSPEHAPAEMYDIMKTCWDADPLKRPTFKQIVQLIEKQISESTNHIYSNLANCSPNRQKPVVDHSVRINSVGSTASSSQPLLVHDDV
T9 sequence (P10721 26-976 D816H): as the sequence (P10721 26-976 A829P) above, with D791H, P804A counted along it
T7 sequence (P07949 29-1114 V804L): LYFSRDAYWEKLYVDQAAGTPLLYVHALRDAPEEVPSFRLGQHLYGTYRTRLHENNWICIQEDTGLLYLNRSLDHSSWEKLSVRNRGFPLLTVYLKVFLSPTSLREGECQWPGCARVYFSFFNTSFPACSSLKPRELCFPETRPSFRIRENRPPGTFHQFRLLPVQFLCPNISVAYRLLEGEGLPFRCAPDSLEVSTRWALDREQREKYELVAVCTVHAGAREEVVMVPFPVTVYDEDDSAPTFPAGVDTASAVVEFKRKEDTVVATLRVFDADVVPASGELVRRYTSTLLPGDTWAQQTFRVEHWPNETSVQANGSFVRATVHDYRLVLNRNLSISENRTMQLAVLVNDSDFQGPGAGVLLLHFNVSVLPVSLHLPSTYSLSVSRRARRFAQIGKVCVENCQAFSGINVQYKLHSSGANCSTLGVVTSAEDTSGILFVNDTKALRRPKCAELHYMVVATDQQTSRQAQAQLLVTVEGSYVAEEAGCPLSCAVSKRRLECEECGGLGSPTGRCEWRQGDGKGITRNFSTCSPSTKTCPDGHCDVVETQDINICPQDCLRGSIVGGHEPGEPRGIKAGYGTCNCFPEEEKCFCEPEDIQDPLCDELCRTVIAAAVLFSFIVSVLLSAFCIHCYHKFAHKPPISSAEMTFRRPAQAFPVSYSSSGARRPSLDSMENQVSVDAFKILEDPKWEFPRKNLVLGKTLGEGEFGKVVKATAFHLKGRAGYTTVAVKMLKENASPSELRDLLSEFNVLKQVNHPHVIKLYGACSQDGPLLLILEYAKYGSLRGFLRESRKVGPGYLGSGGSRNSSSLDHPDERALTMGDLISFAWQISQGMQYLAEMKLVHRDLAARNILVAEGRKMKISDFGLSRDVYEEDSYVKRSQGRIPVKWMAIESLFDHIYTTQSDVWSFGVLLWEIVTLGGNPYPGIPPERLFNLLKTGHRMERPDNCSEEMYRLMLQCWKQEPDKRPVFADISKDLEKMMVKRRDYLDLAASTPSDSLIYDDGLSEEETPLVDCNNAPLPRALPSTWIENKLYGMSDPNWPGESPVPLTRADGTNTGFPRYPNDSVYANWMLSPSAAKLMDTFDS
T6 sequence (P07949 29-1114): as the sequence (P07949 29-1114 V804L) above, with L776V counted along it

| SMILES | % Ctrl, ABL1(M351T)-phosphorylated (kinases [1]) [% Ctrl] | % Ctrl, EGFR (kinases [2]) [% Ctrl] | % Ctrl, EGFR(E746-A750del) (kinases [3]) [% Ctrl] | % Ctrl, EGFR(L861Q) (kinases [4]) [% Ctrl] | % Ctrl, EGFR(T790M) (kinases [5]) [% Ctrl] | % Ctrl, RET (kinases [6]) [% Ctrl] | % Ctrl, RET(V804L) (kinases [7]) [% Ctrl] | % Ctrl, KIT(A829P) (kinases [8]) [% Ctrl] | % Ctrl, KIT(D816H) (kinases [9]) [% Ctrl] | % Ctrl, FLT3(K663Q) (kinases [10]) [% Ctrl] | % Ctrl, EGFR(L747-E749del, A750P) (kinases [11]) [% Ctrl] | % Ctrl, EGFR(L747-S752del, P753S) (kinases [11]) [% Ctrl] | % Ctrl, EGFR(L747-T751del, Sins) (kinases [11]) [% Ctrl] | % Ctrl, FLT3(ITD) (kinases [11]) [% Ctrl] | % Ctrl, FLT3(ITD, D835V) (kinases [11]) [% Ctrl] | % Ctrl, FLT3(ITD, F691L) (kinases [11]) [% Ctrl] |
| --- | --- | --- | --- | --- | --- | --- | --- | --- | --- | --- | --- | --- | --- | --- | --- | --- |
| Cc1cc2c([nH]1)/C=C1\C(=O)Nc3ccc(nc31)-c1ccccc1OCCCNC2=O [Ex.22, [3a(4)Z]-6-methyl-9,10,11,12-tetrahydro-1,18-(ethanediylidene)dipyrrolo[3,2-g:3′,4′-j][1,5,12]benzoxadiazacyclopentadecine-3,8(2H,5H)-dione] | 100 | 64 | 97 | 87 | 57 | 81 | 98 | 100 | 100 | 100 | 73 | 95 | 81 | 100 | 71 | 100 |
| Cc1cc2c([nH]1)/C=C1\C(=O)Nc3cnc(nc31)N(C)CCCOCCN(C)C2=O [Ex.71, [17a(18)Z]-2,5,12-trimethyl-6,7,9,10,11,12-hexahydro-1H-13,15-(azenometheno)dipyrrolo[3,2-f:3′,4′-i][1,4,11,13]oxatriazacyclohexadecine-4,17(5H,16H)-dione] | 100 | 95 | 100 | 80 | 100 | 96 | 95 | 100 | 100 | 84 | 92 | 100 | 67 | 91 | 100 | 100 |
| Cc1cc2c([nH]1)/C=C1\C(=O)Nc3ccc(cc31)OCCOCCN(C)C2=O [Ex.91, [16a(17)Z]-2,5-dimethyl-6,7,9,10-tetrahydro-1H-12,14-(ethanediylidene)dipyrrolo[3,2-i:3′,4′-l][1,4,7]dioxazacyclopentadecine-4,16(5H,15H)-dione] | 8.5 | 99 | 93 | 66 | 82 | 4.3 | 3.8 | 32 | 41 | 63 | 100 | 94 | 68 | 2.1 | 0 | 0 |
| Cc1cc2c([nH]1)/C=C1\C(=O)Nc3cnc(cc31)-c1cnn(C)c1COCCNC2=O [Ex.123, [3a(4)Z]-6,14-dimethyl-10,11,13,14-tetrahydro-2H-17,1-(azenometheno)pyrazolo[4,3-m]dipyrrolo[3,2-f:3′,4′-i][1,4]oxazacyclopentadecine-3,8(5H,9H)-dione] | 100 | 98 | 100 | 100 | 100 | 91 | 89 | 100 | 100 | 77 | 9 | 100 | 74 | 93 | 100 | 39 |

More lines, now with the values ahead:

| % Ctrl, ABL1(M351T)-phosphorylated (kinases [1]) [% Ctrl] | % Ctrl, EGFR (kinases [2]) [% Ctrl] | % Ctrl, EGFR(E746-A750del) (kinases [3]) [% Ctrl] | % Ctrl, EGFR(L861Q) (kinases [4]) [% Ctrl] | % Ctrl, EGFR(T790M) (kinases [5]) [% Ctrl] | % Ctrl, RET (kinases [6]) [% Ctrl] | % Ctrl, RET(V804L) (kinases [7]) [% Ctrl] | % Ctrl, KIT(A829P) (kinases [8]) [% Ctrl] | % Ctrl, KIT(D816H) (kinases [9]) [% Ctrl] | % Ctrl, FLT3(K663Q) (kinases [10]) [% Ctrl] | % Ctrl, EGFR(L747-E749del, A750P) (kinases [11]) [% Ctrl] | % Ctrl, EGFR(L747-S752del, P753S) (kinases [11]) [% Ctrl] | % Ctrl, EGFR(L747-T751del, Sins) (kinases [11]) [% Ctrl] | % Ctrl, FLT3(ITD) (kinases [11]) [% Ctrl] | % Ctrl, FLT3(ITD, D835V) (kinases [11]) [% Ctrl] | % Ctrl, FLT3(ITD, F691L) (kinases [11]) [% Ctrl] | SMILES |
| --- | --- | --- | --- | --- | --- | --- | --- | --- | --- | --- | --- | --- | --- | --- | --- | --- |
| 58 | 77 | 69 | 68 | 99 | 85 | 87 | 99 | 83 | 100 | 68 | 66 | 60 | 89 | 17 | 27 | Cc1cc2c([nH]1)/C=C1\C(=O)Nc3ccc(cc31)-c1ccnn1CCOCCNC2=O [Ex.39, [19a(20)Z]-2-methyl-6,7,9,10-tetrahydro-1H-15,17-(ethanediylidene)pyrazolo[1,5-d]dipyrrolo[3,4-h:2′,3′-k][1,4,14]oxadiazacyclohexadecine-4,19(5H,18H)-dione] |
| 98 | 74 | 92 | 64 | 68 | 94 | 71 | 100 | 7 | 44 | 83 | 100 | 59 | 6.9 | 0.45 | 5.8 | Cc1cc2c([nH]1)/C=C1\C(=O)Nc3ccc(cc31)CN(C)C(=O)COCCNC2=O [Ex.111, [17a(18)Z]-2,11-dimethyl-6,7,11,12-tetrahydro-1H-13,15-(ethanediylidene)dipyrrolo[3,2-f:3′,4′-i][1,4,14]oxadiazacyclohexadecine-4,10,17(5H,9H,16H)-trione] |
